The values that follow come from patent US12208105B2, “Methods for attenuating graft-versus-host disease and opportunistic infections” (priority 2018, dated 2025).

Molecules are shown by their SMILES. Bounds are passed on as bounds.

One data set addresses T1, CCR1 (Homo sapiens, UniProt P32246).
T1 sequence (P32246 1-355): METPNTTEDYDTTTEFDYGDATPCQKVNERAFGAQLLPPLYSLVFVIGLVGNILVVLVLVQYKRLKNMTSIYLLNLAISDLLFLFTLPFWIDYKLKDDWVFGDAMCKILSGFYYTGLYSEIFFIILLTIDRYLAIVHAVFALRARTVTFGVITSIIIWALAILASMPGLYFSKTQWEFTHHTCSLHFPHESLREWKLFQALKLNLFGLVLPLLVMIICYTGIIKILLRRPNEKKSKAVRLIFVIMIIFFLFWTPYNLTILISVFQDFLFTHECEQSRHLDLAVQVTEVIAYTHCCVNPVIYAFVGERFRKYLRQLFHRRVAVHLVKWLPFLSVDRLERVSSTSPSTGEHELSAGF
The conditions noted are these: cited from earlier work.

The nature of another data set: Cytotoxicity (Table 1). It counts as cell-based. An excerpt:
Perhaps the most important goal of HSCT research is to separate the beneficial anti-tumor effects mediated by donor T cells from the deleterious GVHD responses that they are also capable of producing. […] Unfortunately, there were no drugs or therapeutic antibodies available for clinical use. As a result, we pursued our high throughput screening (HTS) effort to identify novel small molecule antagonists with anti-CCR7 activity. The initial drug discovery process identified cosalane as a CCR7 antagonist. A substantial amount of work has subsequently been done with the compound in an effort to prevent acute graft-versus-host disease in mouse bone marrow transplant models.

The next data set deals with T2, CCR7 (Homo sapiens, UniProt P32248).
T2 sequence (P32248 25-378): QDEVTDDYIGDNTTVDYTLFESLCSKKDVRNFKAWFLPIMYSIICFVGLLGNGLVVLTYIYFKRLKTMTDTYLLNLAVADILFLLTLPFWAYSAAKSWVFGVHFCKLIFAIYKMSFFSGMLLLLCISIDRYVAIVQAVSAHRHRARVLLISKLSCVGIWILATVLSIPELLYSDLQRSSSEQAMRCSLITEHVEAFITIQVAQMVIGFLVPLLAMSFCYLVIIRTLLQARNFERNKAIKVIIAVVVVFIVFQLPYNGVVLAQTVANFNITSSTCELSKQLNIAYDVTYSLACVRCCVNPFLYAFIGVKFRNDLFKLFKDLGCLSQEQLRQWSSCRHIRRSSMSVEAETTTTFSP
Put plainly: Trans-well chemotaxis assay, human H9 cells. The format is cell-based. On the set-up: confirm that hits identified in the HTS were active against native CCR7; endogenous in cells; host or cells: H9 cells (human cutaneous T cell lymphoma line). The protocol:
FIGS. 1A-1D show cosalane impairs CCR7 driven human and murine chemotaxis. (A, B) Chemotaxis media with or without CCL19 (A) or CCL21 (B) was added to the lower chambers of the chemotaxis device. Previously untreated H9 cells were then placed in the upper chambers of the device with or without cosalane at a concentration of 2 μM. The chamber was then placed at 37° C. for 3.5 hours and total H9 migration from each upper to lower chamber determined. (A) *P=0.048 for comparison between H9 cells/30 nM CCL19 and H9 cells/30 nM CCL19/2 μM cosalane by Student's t test. (B) P>0.05 for comparison between H9 cells/200 nM CCL21 and H9 cells/200 nM CCL21/2 μM cosalane. (C, D) Chemotaxis media with or without CCL19 (C) or CCL21 (D) was added to the lower chambers of the chemotaxis device. Previously untreated primary murine T cells were then placed in the upper chambers of the device with or without cosalane at a concentration of 2 μM. Total T cell migration from each upper to lower chamber was then determined. (C) *P=0.029. (D) *P<0.001.
While useful from a screening perspective, our primary reporter assays for the HTS were not physiologic. As a result, it was important to confirm that hits identified in the HTS were active against native CCR7 and could block an actual function mediated by the receptor. For this, we used a well-described trans-well chemotaxis assay system using human H9 cells, a cutaneous T cell lymphoma line known to express high levels of CCR7 and to migrate in response to its ligands (Ott et al., J. Pharmacol. Toxicol. Meth. 51:105 (2005)). In addition, we utilized primary mouse, naïve (CD25^neg) T cells obtained from C57BL/6 mice. As depicted in FIG. 1A, human H9 cells placed in the upper chambers of the chemotaxis device readily migrated through the separating membrane when CCL19 was present in the lower chamber. […] Similarly, murine T cell chemotaxis was also impaired by cosalane in response to both CCL19 and CCL21 (FIGS. 1C-1D).
To evaluate this possibility, human H9 cells were incubated with 10 mcg/ml (13 μM) of cosalane versus DMSO vehicle for one hour and then washed free of the compound. The cells were then placed into the chemotaxis chamber as was done in FIGS. 1A-1D. […] Similar experiments were performed with naïve primary mouse T cells.

In data set [1] the test system is donor (eGFP+) cells in the spleen. As to the kind of experiment: Donor engraftment in host spleen by flow cytometry. It counts as in vivo, mouse. The conditions noted are these: whole stem cell product incubated 15 μg/ml, transplant day +10. The procedure:
Purified Tcons and TCD BM cells were obtained from B6 donors transgenic for enhanced green fluorescent protein (eGFP^+) and were mixed together prior to being incubated with cosalane or DMSO. The cells were subsequently administered to irradiated B6D2 recipients and both bone marrow and Tcon engraftment then determined by flow cytometry within the host spleen on transplant day +10. Donor derived cells were distinguished from residual host cells by virtue of their eGFP positivity.

For data set [2], the system named is CCR7-/- B6 into BALB/c aGVHD model. Put plainly: aGVHD induced with CCR7-/- B6 Tcons into BALB/c.
Procedure: (A, B) BALB/c mice were lethally irradiated on transplant day −1. On day 0 recipients were administered 5×10^6 TCD B6 BM cells +/−3×10^6 CCR7^−/− B6 Tcons. Donor Tcons were incubated ex vivo with DMSO vehicle or cosalane diluted in normal saline at 15 μg/ml. The cells were then mixed with untreated TCD B6 BM cells and administered immediately to recipient mice by tail vein injection. Mice were then followed for survival and scored for aGVHD. N=2 BM only. N=6 for all other treatment groups. […] (C, D) BALB/c mice were transplanted as in A, B. Donor CCR7^−/− B6 Tcons, however, were incubated ex vivo with DMSO vehicle or cosalane diluted in normal saline at 30 μg/ml. N=2 BM only. N=9 for all other treatment groups.
As a result, we repeated our CCR7^−/− B6 into BALB/c transplant but pre-incubated the donor Tcons with an identical cosalane strength of 30 μg/ml.
Where [3] appears, read: 10 mcg/ml (13 μM) one hour, then washed.
Setting [4] is: BM plus Tcons incubated 15 μg/ml.
[5] abbreviates: Tcons incubated 10 μg/ml (13 μM) in saline alone, one hour.

As for `CC(C)CCC[C@@H](C)[C@H]1CC[C@H]2[C@@H]3CC[C@H]4C[C@@H](CCC=C(c5cc(Cl)c(O)c(C(=O)O)c5)c5cc(Cl)c(O)c(C(=O)O)c5)CC[C@]4(C)[C@H]3CC[C@]12C` [Cosalane, cosalane], at CCR1, the “CCR1 dependent chemotaxis in response to CCL3 and CCL4” value is “inactive”; the “CCR1 dependent chemotaxis in response to CCL5” value is on record as “blocked”. Moreover, the Cytotoxicity in the data set “Cytotoxicity (Table 1)” is given as >50 (non-toxic) μM. For the same compound, on CCR7 (2 μM cosalane in upper chamber, 30 nM CCL19, 3.5 hours, vs DMSO), the “H9 cell migration in response to CCL19” value is reported as “inhibited versus DMSO”. Moreover, the “H9 cell CCL21 driven chemotaxis” value on CCR7 (2 μM cosalane in upper chamber, 200 nM CCL21) is “reduced by cosalane, although this did not achieve statistical significance”. On CCR7 (setting [3]), the “H9 chemotaxis in response to CCL19 after pretreatment alone” value is listed as “significantly reduced” and the “H9 chemotaxis in response to CCL21 after pretreatment alone” value is “significantly reduced”. Moreover, the “donor cell numbers in the spleen” value in data set [1] is listed as “did not produce any differences in donor monocyte, neutrophil, T cell, or B cell numbers”. For the same compound, the “aGVHD with CCR7-/- donor Tcons” value in data set [2] (Tcons incubated 15 μg/ml) is “completely inactive”. In data set [2] (Tcons incubated 30 μg/ml), the “aGVHD scores with CCR7-/- donor Tcons” value is “trend for lower aGVHD scores” and the “survival times with CCR7-/- donor Tcons” value is listed as “longer survival times”. Further, the “recipients surviving to the end of the study period, combined treatment” value with B6 into B6D2 aGVHD model (BM cells and Tcons incubated 15 μg/ml) stood at 100%. Besides, in the data set with B6 into B6D2 aGVHD model (setting [4]), the “delayed bone marrow failure” value is recorded as “no clinical signs of delayed bone marrow failure” and the “group surviving to the end of the study observation period” value was found to be 90%. Besides, in the data set with B6 into B6D2 aGVHD model (setting [5]), the aGVHD scores entry is “reduced aGVHD scores” and the median survival times entry is reported as “improved median survival times”. The aGVHD result in the data set on B6 into B6D2 aGVHD model (Tcons incubated 10 μg/ml in saline plus 1% albumin) was “developed severe aGVHD similar to DMSO controls”. For the same compound, the “survival, isolated treatment of donor Tcons” value in the data set on B6 into B6D2 aGVHD model (Tcons incubated 15 μg/ml, BM DMSO) worked out at 100%. Also, the “transplant outcomes, dose dependence” value with B6 into B6D2 aGVHD model (Tcons incubated 10, 20 or 30 μg/ml) is on record as “improved transplant outcomes with increasing dosages”. Also, in the data set with B6 into B6D2 aGVHD model (mouse, in vivo), the “aGVHD attenuation, whole stem product treated” value is given as “attenuate aGVHD at least as well as what was observed previously with the isolated treatment of Tcons alone” and the “outcomes, isolated treatment of donor BM cells alone” value was “did not significantly improve outcomes”.
